Drawing on ChEMBL document CHEMBL5729184, “Purine derivatives and the use thereof as medicament” (2022), this text covers IC50 for 25 compounds.

Glutamate receptor ionotropic, NMDA 2B, sequence (Q13224 whole entry): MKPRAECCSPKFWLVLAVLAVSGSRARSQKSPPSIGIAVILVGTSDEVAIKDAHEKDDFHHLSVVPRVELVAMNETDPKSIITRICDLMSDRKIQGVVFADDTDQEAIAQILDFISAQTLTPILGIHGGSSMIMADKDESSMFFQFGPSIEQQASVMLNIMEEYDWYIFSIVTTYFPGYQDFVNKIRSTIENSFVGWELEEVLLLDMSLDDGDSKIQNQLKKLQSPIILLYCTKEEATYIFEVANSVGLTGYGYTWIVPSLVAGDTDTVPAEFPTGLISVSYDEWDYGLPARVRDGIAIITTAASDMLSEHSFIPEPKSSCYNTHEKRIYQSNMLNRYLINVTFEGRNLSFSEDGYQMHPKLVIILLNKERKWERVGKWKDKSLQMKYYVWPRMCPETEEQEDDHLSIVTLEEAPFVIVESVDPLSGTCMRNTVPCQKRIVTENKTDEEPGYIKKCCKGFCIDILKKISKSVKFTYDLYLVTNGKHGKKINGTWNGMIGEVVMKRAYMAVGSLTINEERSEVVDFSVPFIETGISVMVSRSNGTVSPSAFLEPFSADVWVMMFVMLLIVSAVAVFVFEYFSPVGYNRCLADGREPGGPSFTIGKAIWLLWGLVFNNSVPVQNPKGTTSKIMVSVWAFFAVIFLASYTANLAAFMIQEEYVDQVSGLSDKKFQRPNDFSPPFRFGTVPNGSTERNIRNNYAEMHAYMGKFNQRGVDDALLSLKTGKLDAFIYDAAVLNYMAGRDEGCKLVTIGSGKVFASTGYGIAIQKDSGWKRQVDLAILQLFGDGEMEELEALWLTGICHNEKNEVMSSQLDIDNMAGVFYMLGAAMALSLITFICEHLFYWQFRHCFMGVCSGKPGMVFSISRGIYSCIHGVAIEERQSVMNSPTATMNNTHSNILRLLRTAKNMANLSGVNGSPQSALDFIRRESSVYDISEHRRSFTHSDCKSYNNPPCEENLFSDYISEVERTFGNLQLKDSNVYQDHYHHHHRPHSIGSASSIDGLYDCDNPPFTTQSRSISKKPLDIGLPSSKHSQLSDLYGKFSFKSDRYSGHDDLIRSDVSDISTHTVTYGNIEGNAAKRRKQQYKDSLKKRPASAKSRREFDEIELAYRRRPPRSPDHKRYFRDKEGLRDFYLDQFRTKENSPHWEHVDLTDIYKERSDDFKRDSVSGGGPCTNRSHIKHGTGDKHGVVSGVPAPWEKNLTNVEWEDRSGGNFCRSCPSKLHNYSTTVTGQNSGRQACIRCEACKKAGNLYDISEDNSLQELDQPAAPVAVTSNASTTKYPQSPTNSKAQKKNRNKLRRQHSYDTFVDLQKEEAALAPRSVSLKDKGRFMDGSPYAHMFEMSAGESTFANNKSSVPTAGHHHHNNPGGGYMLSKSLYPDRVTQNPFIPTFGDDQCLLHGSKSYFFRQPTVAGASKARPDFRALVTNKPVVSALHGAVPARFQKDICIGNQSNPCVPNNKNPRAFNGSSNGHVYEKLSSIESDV

The assay has as its target Glutamate receptor ionotropic, NMDA 2B (Homo sapiens, UniProt Q13224). Description: FLIPR Assay: At the assay day cells were washed 3× with assay buffer, 10 μL buffer remained in the wells after washing. 10 μL Ca kit loading buffer (AAT Bioquest) was added to the cells and the plates were incubated with lid for 60 minutes at r.t. 20 μl assay buffer containing 60 μM glycine (20 μM final) and 3 μM glutamate (1 μM final) was added to column 1-23. Fluorescence (indicating the calcium influx as a result of the NR1/NR2B ion channel activation) was read on the FLIPRtetra device for 60 seconds to monitor the glutamate induced effects. After 2 minutes 20 μL of compound or controls (row 1-22) in assay buffer were carefully added to the wells. […] Each assay microtiter plate contained wells (in column 23 or 24) with DMSO controls instead of compound as controls for glycine/glutamate induced fluorescence (high controls) and wells with 1 μM of a reference NR2b NAM as low controls (Compound 22; reference: Layton, Mark E et al, ACS Chemical Neuroscience 2011, 2(7), 352-362).
With `O=C(OCc1ccc(Cl)cc1)N1CCOC(c2nc3cncnc3[nH]2)C1` (stereo not given), the IC50 (commonly the point on the concentration scale where inhibition reaches its midpoint) is 113 nM.
For the compound `Cc1ccc(COC(=O)N2CCO[C@H](c3nc4cncnc4[nH]3)C2)cc1F`, the IC50 is 100 nM.
Consider `O=C(OCc1ccc(F)cc1)N1CCOC(c2nc3cncnc3[nH]2)C1` (stereo not given), for which the IC50 was determined as 107 nM.
In the case of `Cc1cccc(F)c1COC(=O)N1CCOC(c2nc3cncnc3[nH]2)C1` (stereo not given), the half-maximal inhibitory concentration (IC50) turned out to be 118 nM.
Turning to `O=C(OCc1c(F)cc(F)cc1F)N1CCOC(c2nc3cncnc3[nH]2)C1` (stereo not given), the IC50 was 84 nM.
As for `O=C(OCc1ccc(C(F)F)cc1)N1CCOC(c2nc3cncnc3[nH]2)C1` (stereo not given), the IC50 stood at 45 nM.
As for `O=C(OCc1ccc(F)cc1Cl)N1CCOC(c2nc3cncnc3[nH]2)C1` (stereo not given), the IC50 was found to be 90 nM.
With `Cc1cccc(COC(=O)N2CCOC(c3nc4cncnc4[nH]3)C2)c1` (stereo not given), the IC50 is 322 nM.
As to `Cc1c(F)cccc1COC(=O)N1CCOC(c2nc3cncnc3[nH]2)C1` (stereo not given), the IC50 was determined as 520 nM.
Regarding `Cc1ncnc2[nH]c(C3CN(C(=O)OCc4ccc(F)cc4)CCO3)nc12` (stereo not given), the IC50 was found to be 637 nM.
As to `O=C(OCc1ccccc1F)N1CCOC(c2nc3cncnc3[nH]2)C1` (stereo not given), the IC50 turned out to be 74 nM.
As for `O=C(OCc1ccccc1Cl)N1CCOC(c2nc3cncnc3[nH]2)C1` (stereo not given), the IC50 was found to be 88 nM.
The result for `Cc1ncnc2[nH]c(C3CN(C(=O)OCc4ccccc4F)CCO3)nc12` (stereo not given) reads 385 nM; that for `Cc1ccc(COC(=O)N2CCOC(c3nc4cncnc4[nH]3)C2)c(F)c1` (stereo not given), 49 nM.
`O=C(OCc1ccccc1)N1CCOC(c2nc3cncnc3[nH]2)C1` (stereo not given): the IC50 turned out to be 114 nM.
Consider `O=C(OCc1cccc(F)c1)N1CCOC(c2nc3cncnc3[nH]2)C1` (stereo not given), for which the IC50 was 295 nM.
As to `O=C(OCc1cccc(F)c1F)N1CCOC(c2nc3cncnc3[nH]2)C1` (stereo not given), the IC50 is 60 nM.
For the compound `Cc1cc(F)ccc1COC(=O)N1CCOC(c2nc3cncnc3[nH]2)C1` (stereo not given), the IC50 was 234 nM.
As to `O=C(OCc1ccc(F)cc1F)N1CCOC(c2nc3cncnc3[nH]2)C1` (stereo not given), the IC50 stood at 102 nM.
As for `O=C(OCc1ccc(Cl)c(F)c1)N1CCOC(c2nc3cncnc3[nH]2)C1` (stereo not given), the IC50 was determined as 314 nM.
As to `O=C(OCc1ccc(F)c(F)c1)N1CCOC(c2nc3cncnc3[nH]2)C1` (stereo not given), the IC50 turned out to be 520 nM.
For the compound `Cc1ccc(COC(=O)N2CCOC(c3nc4cncnc4[nH]3)C2)cc1` (stereo not given), the IC50 was 67 nM.
On to `Cc1cccc(COC(=O)N2CCOC(c3nc4cncnc4[nH]3)C2)c1F` (stereo not given), for which the IC50 is 83 nM.
For `O=C(OCc1c(F)cccc1F)N1CCOC(c2nc3cncnc3[nH]2)C1` (stereo not given), the IC50 amounted to 111 nM.
The result for `Cc1ccc(COC(=O)N2CCOC(c3nc4c(C)ncnc4[nH]3)C2)cc1` (stereo not given) reads 150 nM.
